Earlier results in US20060210638A1, “Injectable compositions of nanoparticulate immunosuppressive compounds” (Elan Pharma International Limited, priority 2005, published 2006).
Like-named read-outs stand apart in the source and are kept apart here.

How the values were obtained:
[1] = in vitro studies
[2] = for mean time-to-peak concentration (Tmax): Rapamune Oral Solution
[3] = reputed
[4] = for reduction of mean AUC relative to fasted / reduction of mean Cmax relative to fasted: healthy volunteers (N=16)
[5] = not given; remark: listed apart in the source
[6] = for mean clearance: IV administration
[7] = not given; remark: listed apart in the source
[8] = 11 liver transplant patients, 15 minutes after high fat (400 kcal, 34% fat) breakfast
[9] = given immediately following the meal
[10] = high-carbohydrate meal (668 kcal, 85% carbohydrate)
[11] = high-fat meal (848 kcal, 46% fat), 15 healthy volunteers

Q: With C=CCC1C=C(C)CC(C)CC(OC)C2OC(O)(C(=O)C(=O)N3CCCCC3C(=O)OC(C(C)=CC3CCC(O)C(O)C3)C(C)C(O)CC1=O)C(C)CC2OC (stereo not shown) [31-demethyl metabolite] as the compound, how does the “activity relative to tacrolimus (in words)” value [1] read?
A: same activity as tacrolimus

Q: Which “stability when exposed to water (in words)” value (aqueous medium) does the source give for CO[C@H]1C[C@@H]2CC[C@@H](C)[C@@](O)(O2)C(=O)C(=O)N2CCCC[C@H]2C(=O)O[C@H]([C@H](C)C[C@@H]2CC[C@@H](O)[C@H](OC)C2)CC(=O)[C@H](C)/C=C(\C)[C@@H](O)[C@@H](OC)C(=O)[C@H](C)C[C@H](C)/C=C/C=C/C=C/1C [Sirolimus, (3S,6R,7E,9R,10R,12R,14S,15E,17E,19E,21S,23S,26R,27R ,34aS)-9,10,12,13,14,21,22,23,24,25,26,27,32,33,34,34a-hexadecahydro-9,27-dihydroxy-3-[(1 R )-2-[(1S,3R,4R)-4-hydroxy-3-methoxycyclohexyl]-1-methylethyl]-10,21-dimethoxy-6,8,12,14,20,26-hexamethyl-23,27-epoxy-3H-pyrido[2,1-c] [1,4] oxaazacyclohentriacontine-1,5,11,28,29(4H,6H,31H)-pentone] here?
A: rapidly hydrolyzes

Q: And the “solubility in benzyl alcohol, chloroform, acetone, and acetonitrile (in words)” value (benzyl alcohol, chloroform, acetone, acetonitrile)?
A: freely soluble

Q: What about the solubility in water (water) of the same compound?
A: 20 micrograms per mL

Q: What about the “solubility in water (in words)” value (water) of the same compound?
A: insoluble

Q: What about the “mean time-to-peak concentration (Tmax)” value ([2]; multiple oral doses, renal transplant recipients) of the same compound?
A: approximately 2 hours

Q: And the “mean time-to-peak concentration (Tmax)” value ([2]; single dose, healthy subjects)?
A: approximately 1 hour

Q: What about the systemic availability ([2]; after Rapamune Oral Solution) of the same compound?
A: approximately 14%

Q: Which “effectiveness relative to cyclosporine” value [3] does the source give for C=CC[C@@H]1/C=C(\C)C[C@H](C)C[C@H](OC)[C@H]2O[C@@](O)(C(=O)C(=O)N3CCCC[C@H]3C(=O)O[C@H](/C(C)=C/[C@@H]3CC[C@@H](O)[C@H](OC)C3)[C@H](C)[C@@H](O)CC1=O)[C@H](C)C[C@@H]2OC [Tacrolimus] here?
A: 100 times

Q: What about the “decreased AUC compared to fasted state” value [4, 8] of the same compound?
A: 27±18%

Q: And the “decreased Cmax compared to fasted state” value [4, 8]?
A: 50±19%

Q: What about the “reduction of mean AUC relative to fasted” value ([4]; 1.5 hours following the meal) of the same compound?
A: 39%

Q: What about the “reduction of mean Cmax relative to fasted” value ([4]; 1.5 hours following the meal) of the same compound?
A: 63%

Q: And the “reduction of mean AUC relative to fasted” value [4, 9]?
A: 39%

Q: And the “reduction of mean Cmax relative to fasted” value [4, 9]?
A: 71%

Q: What about the “decrease of mean AUC” value [4, 10] of the same compound?
A: 28%

Q: What about the “decrease of mean Cmax” value [4, 10] of the same compound?
A: 65%

Q: What about the Tmax lengthened [4, 11] of the same compound?
A: 5 fold

Q: What about the “decrease of mean AUC” value [4, 11] of the same compound?
A: 37%

Q: And the “decrease of mean Cmax” value [4, 11]?
A: 77%

Q: And the “solubility in ethanol (in words)” value (ethanol)?
A: freely soluble

Q: And the “solubility in methanol and chloroform (in words)” value (methanol and chloroform)?
A: very soluble

Q: And the “solubility in water (in words)” value (water)?
A: practically insoluble

Q: And the “ratio of whole blood concentration to plasma concentration, average” value ([5]; U.S. study)?
A: 35

Q: And the plasma protein binding ([5]; independent of concentration over 5-50 ng/mL)?
A: approximately 99%

Q: What about the “correlation coefficient of trough concentration (Cmin) with AUC” value ([6]; 18 kidney transplant patients, trough 3 to 30 ng/mL at 10-12 hours post-dose) of the same compound?
A: 0.93

Q: And the “correlation coefficient of trough concentration (Cmin) with AUC” value ([6]; 24 liver transplant patients, concentration range 10 to 60 ng/mL)?
A: 0.94

Q: What about the mean clearance ([6]; adult kidney transplant patients) of the same compound?
A: 1.38 mL/min/kg

Q: And the mean clearance ([6]; adult liver transplant patients)?
A: 0.883 mL/min/kg

Q: And the mean clearance ([6]; healthy volunteers)?
A: 0.667 mL/min/kg

Q: And the “dose excreted unchanged in urine” value ([6]; in man)?
A: less than 1%

Q: What about the clearance of tacrolimus ([7]; IV) of the same compound?
A: 0.483 ± 0.15 mL/min/kg

Q: What about the “elimination half-life based on tacrolimus concentrations” value ([7]; IV) of the same compound?
A: 43.5 ± 11.6 h

Q: And the fecal elimination ([7]; IV)?
A: 92.4±1.0%

Q: And the “mean recovery of radiolabel” value ([7]; IV, 6 healthy volunteers)?
A: 77.8±12.7%

Q: And the clearance of tacrolimus ([7]; oral)?
A: 2.87 ± 1.47 mL/min/kg

Q: What about the “elimination half-life based on tacrolimus concentrations” value ([7]; oral) of the same compound?
A: 48.4 ± 12.3 h

Q: What about the fecal elimination ([7]; oral) of the same compound?
A: 92.6±30.7%

Q: What about the “mean recovery of the radiolabel” value ([7]; oral) of the same compound?
A: 94.9±30.7%

Q: What about the urinary elimination ([7]; oral) of the same compound?
A: 2.3±1.1%
